# Laboratory results as given in ChEMBL document CHEMBL1149203, “Design, synthesis, and characterization of an ATP-peptide conjugate inhibitor of protein kinase A” (Bioorg Med Chem Lett, 2004).
# Target: cAMP-dependent protein kinase (PKA) (Homo sapiens, UniProt P22694+P17612+P22612)
# Test: Inhibition of protein kinase A expressed in Escherichia coli
smiles,measurement,value
CC(=O)N[C@@H](CC(C)C)C(=O)N[C@@H](CCCN=C(N)N)C(=O)N[C@@H](CCCN=C(N)N)C(=O)N[C@@H](C)C(=O)NC(CNC(=O)CSP(=O)(O)OP(=O)(O)OP(=O)(O)OC[C@H]1O[C@@H](n2cnc3c(N)ncnc32)[C@H](O)[C@@H]1O)C(=O)N[C@@H](CC(C)C)C(=O)NCC(=O)O (stereo partly specified),Ki,3.8 µM
